Experimental data taken from patent US9771369B2, “Compounds and methods for kinase modulation, and indications therefor” (Plexxikon Inc., priority 2014, dated 2017).

molecular target: c-Kit kinase (Homo sapiens (Human), UniProt P10721); test: c-Kit biochemical assay (AlphaScreen kinase activity)
How it was run: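 AlphaScreen: c-Kit phosphorylates biotin-(E4Y)3 (100 nM) at 10 μM ATP, pH 7.2 HEPES buffer with Mg/Mn, 5% DMSO, 1 h room temperature; streptavidin donor and PY30 acceptor beads detect product. Second format: 100 μM ATP, 30 nM biotin-(E4Y)10, pH 7.5. IC50 from 8-point 1:3 dilution curves.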

c-Kit kinase, sequence (P10721 26-976): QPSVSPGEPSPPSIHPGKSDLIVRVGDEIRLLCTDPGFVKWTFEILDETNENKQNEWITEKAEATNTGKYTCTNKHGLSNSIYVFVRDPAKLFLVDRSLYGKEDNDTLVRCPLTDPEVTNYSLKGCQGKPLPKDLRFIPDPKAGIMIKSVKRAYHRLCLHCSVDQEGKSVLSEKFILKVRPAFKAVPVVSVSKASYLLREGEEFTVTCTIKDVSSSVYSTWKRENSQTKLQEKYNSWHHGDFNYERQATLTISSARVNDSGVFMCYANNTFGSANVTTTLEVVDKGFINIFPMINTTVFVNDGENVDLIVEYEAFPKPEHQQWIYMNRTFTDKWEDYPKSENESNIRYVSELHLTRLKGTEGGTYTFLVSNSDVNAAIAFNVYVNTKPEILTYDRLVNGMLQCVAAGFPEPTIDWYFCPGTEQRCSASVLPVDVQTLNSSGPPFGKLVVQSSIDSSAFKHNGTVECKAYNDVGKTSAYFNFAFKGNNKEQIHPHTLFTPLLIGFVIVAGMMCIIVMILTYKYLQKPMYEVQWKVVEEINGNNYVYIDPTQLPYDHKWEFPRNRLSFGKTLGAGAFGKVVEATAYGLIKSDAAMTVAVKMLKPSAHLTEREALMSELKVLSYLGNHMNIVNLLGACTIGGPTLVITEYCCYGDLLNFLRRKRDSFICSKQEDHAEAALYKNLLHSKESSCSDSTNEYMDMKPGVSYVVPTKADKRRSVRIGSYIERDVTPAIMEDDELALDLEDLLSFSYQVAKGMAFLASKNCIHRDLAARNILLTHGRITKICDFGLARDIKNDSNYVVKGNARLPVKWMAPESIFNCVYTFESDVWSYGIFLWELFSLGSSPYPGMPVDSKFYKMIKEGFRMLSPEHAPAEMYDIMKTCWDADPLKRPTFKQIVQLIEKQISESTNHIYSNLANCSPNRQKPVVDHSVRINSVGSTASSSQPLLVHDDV

SMILES | IC50
COc1ccc(-c2[nH]c(C3(C)CCN(c4ncnc5[nH]c(C)cc45)CC3)nc2C)cc1 [P-3063, 4-[4-[5-(4-methoxyphenyl)-4-methyl-1H-imidazol-2-yl]-4-methyl-1-piperidyl]-6-methyl-7H-pyrrolo[2,3-d]pyrimidine] | 1 to 10 µM
Cc1cc2c(N3CCC(C)(c4nc(C)c(-c5ccc(F)cc5)[nH]4)CC3)ncnc2[nH]1 [P-3064, 4-[4-[5-(4-fluorophenyl)-4-methyl-1H-imidazol-2-yl]-4-methyl-1-piperidyl]-6-methyl-7H-pyrrolo[2,3-d]pyrimidine] | 1 to 10 µM
CCOc1ccc(-c2[nH]c(C3CCN(c4ncnc5[nH]c(-c6ccc(F)cc6)cc45)CC3)nc2C)cc1C [P-3065, 4-[4-[5-(4-ethoxy-3-methyl-phenyl)-4-methyl-1H-imidazol-2-yl]-1-piperidyl]-6-(4-fluorophenyl)-7H-pyrrolo[2,3-d]pyrimidine] | 0.0001 to 1 µM
CCOc1ccc(-c2[nH]c(C3CCN(c4ncnc5[nH]c(-c6ccc(C#N)cc6)cc45)CC3)nc2C)cc1C [P-3066, 4-[4-[4-[5-(4-ethoxy-3-methyl-phenyl)-4-methyl-1H-imidazol-2-yl]-1-piperidyl]-7H-pyrrolo[2,3-d]pyrimidin-6-yl]benzonitrile] | 0.0001 to 1 µM
CCOc1ccc(-c2[nH]c(C3CCN(c4ncnc5[nH]c(-c6ccnc(OC)c6)cc45)CC3)nc2C)cc1C [P-3067, 4-[4-[5-(4-ethoxy-3-methyl-phenyl)-4-methyl-1H-imidazol-2-yl]-1-piperidyl]-6-(2-methoxy-4-pyridyl)-7H-pyrrolo[2,3-d]pyrimidine] | 0.0001 to 1 µM
Cc1nc(C2CCN(c3ncnc4[nH]c(-c5ccc(F)cc5)cc34)CC2)[nH]c1-c1ccc2c(c1)OCO2 [P-3068, 4-[4-[5-(1,3-benzodioxol-5-yl)-4-methyl-1H-imidazol-2-yl]-1-piperidyl]-6-(4-fluorophenyl)-7H-pyrrolo[2,3-d]pyrimidine] | 0.0001 to 1 µM
Cc1nc(C2CCN(c3ncnc4[nH]c(-c5ccc(C#N)cc5)cc34)CC2)[nH]c1-c1ccc2c(c1)OCO2 [P-3069, 4-[4-[4-[5-(1,3-benzodioxol-5-yl)-4-methyl-1H-imidazol-2-yl]-1-piperidyl]-7H-pyrrolo[2,3-d]pyrimidin-6-yl]benzonitrile] | 0.0001 to 1 µM
COc1cc(-c2cc3c(N4CCC(c5nc(C)c(-c6ccc7c(c6)OCO7)[nH]5)CC4)ncnc3[nH]2)ccn1 [P-3070, 4-[4-[5-(1,3-benzodioxol-5-yl)-4-methyl-1H-imidazol-2-yl]-1-piperidyl]-6-(2-methoxy-4-pyridyl)-7H-pyrrolo[2,3-d]pyrimidine] | 0.0001 to 1 µM
CC(=O)Nc1cccc(-c2cc3c(N4CCC(c5nc(C)c(-c6ccccc6)[nH]5)CC4)ncnc3[nH]2)c1 [P-3071, N-[3-[4-[4-(4-methyl-5-phenyl-1H-imidazol-2-yl)-1-piperidyl]-7H-pyrrolo[2,3-d]pyrimidin-6-yl]phenyl]acetamide] | 0.0001 to 1 µM
COc1ccc(-c2cc3c(N4CCC(c5nc(C)c(-c6ccccc6)[nH]5)CC4)ncnc3[nH]2)cn1 [P-3072, 6-(6-methoxy-3-pyridyl)-4-[4-(4-methyl-5-phenyl-1H-imidazol-2-yl)-1-piperidyl]-7H-pyrrolo[2,3-d]pyrimidine] | 1 to 10 µM
Cc1nn(C)cc1-c1cc2c(N3CCC(c4nc(C)c(-c5ccccc5)[nH]4)CC3)ncnc2[nH]1 [P-3073, 6-(1,3-dimethylpyrazol-4-yl)-4-[4-(4-methyl-5-phenyl-1H-imidazol-2-yl)-1-piperidyl]-7H-pyrrolo[2,3-d]pyrimidine] | 0.0001 to 1 µM
Cc1ccc(-c2cc3c(N4CCC(c5nc(C)c(-c6ccccc6)[nH]5)CC4)ncnc3[nH]2)cn1 [P-3074, 4-[4-(4-methyl-5-phenyl-1H-imidazol-2-yl)-1-piperidyl]-6-(6-methyl-3-pyridyl)-7H-pyrrolo[2,3-d]pyrimidine] | 0.0001 to 1 µM
CCOc1cc(-c2cc3c(N4CCC(c5nc(C)c(-c6ccccc6)[nH]5)CC4)ncnc3[nH]2)ccn1 [P-3075, 6-(2-ethoxy-4-pyridyl)-4-[4-(4-methyl-5-phenyl-1H-imidazol-2-yl)-1-piperidyl]-7H-pyrrolo[2,3-d]pyrimidine] | 0.0001 to 1 µM
Cc1nc(C2CCN(c3ncnc4[nH]c(-c5ccnc(N6CCOCC6)c5)cc34)CC2)[nH]c1-c1ccccc1 [P-3076, 4-[4-[4-[4-(4-methyl-5-phenyl-1H-imidazol-2-yl)-1-piperidyl]-7H-pyrrolo[2,3-d]pyrimidin-6-yl]-2-pyridyl]morpholine] | 0.0001 to 1 µM
Cc1nc(C2CCN(c3ncnc4[nH]c(-c5ccnc(N6CCC(C)CC6)c5)cc34)CC2)[nH]c1-c1ccccc1 [P-3077, 4-[4-(4-methyl-5-phenyl-1H-imidazol-2-yl)-1-piperidyl]-6-[2-(4-methyl-1-piperidyl)-4-pyridyl]-7H-pyrrolo[2,3-d]pyrimidine] | 0.0001 to 1 µM
Cc1nc(C2CCN(c3ncnc4[nH]c(-c5ccnc(OC(C)C)c5)cc34)CC2)[nH]c1-c1ccccc1 [P-3078, 6-(2-isopropoxy-4-pyridyl)-4-[4-(4-methyl-5-phenyl-1H-imidazol-2-yl)-1-piperidyl]-7H-pyrrolo[2,3-d]pyrimidine] | 0.0001 to 1 µM
Cc1nc(C2CCN(c3ncnc4[nH]c(-c5ccnc(N6CCCC6)c5)cc34)CC2)[nH]c1-c1ccccc1 [P-3079, 4-[4-(4-methyl-5-phenyl-1H-imidazol-2-yl)-1-piperidyl]-6-(2-pyrrolidin-1-yl-4-pyridyl)-7H-pyrrolo[2,3-d]pyrimidine] | 0.0001 to 1 µM
Cc1nc(C2CCN(c3ncnc4[nH]c(-c5cccc(OC(F)(F)F)c5)cc34)CC2)[nH]c1-c1ccccc1 [P-3080, 4-[4-(4-methyl-5-phenyl-1H-imidazol-2-yl)-1-piperidyl]-6-[3-(trifluoromethoxy)phenyl]-7H-pyrrolo[2,3-d]pyrimidine] | 1 to 10 µM
Cc1nc(C2CCN(c3ncnc4[nH]c(-c5cccc(F)c5)cc34)CC2)[nH]c1-c1ccccc1 [P-3081, 6-(3-fluorophenyl)-4-[4-(4-methyl-5-phenyl-1H-imidazol-2-yl)-1-piperidyl]-7H-pyrrolo[2,3-d]pyrimidine] | 0.0001 to 1 µM
Cc1nc(C2CCN(c3ncnc4[nH]c(-c5cccc(NS(C)(=O)=O)c5)cc34)CC2)[nH]c1-c1ccccc1 [P-3083, N-[3-[4-[4-(4-methyl-5-phenyl-1H-imidazol-2-yl)-1-piperidyl]-7H-pyrrolo[2,3-d]pyrimidin-6-yl]phenyl]methane sulfonamide] | 0.0001 to 1 µM
Cc1nc(C2CCN(c3ncnc4[nH]c(-c5ccc(F)cc5)cc34)CC2)[nH]c1-c1ccc2c(c1)OCCO2 [P-3084, 4-[4-[5-(2,3-dihydro-1,4-benzodioxin-6-yl)-4-methyl-1H-imidazol-2-yl]-1-piperidyl]-6-(4-fluorophenyl)-7H-pyrrolo[2,3-d]pyrimidine] | 0.0001 to 1 µM
Cc1nc(C2CCN(c3ncnc4[nH]c(-c5ccc(F)cc5)cc34)CC2)[nH]c1-c1ccc(OC(F)(F)F)cc1 [P-3085, 6-(4-fluorophenyl)-4-[4-[4-methyl-5-[4-(trifluoromethoxy)phenyl]-1H-imidazol-2-yl]-1-piperidyl]-7H-pyrrolo[2,3-d]pyrimidine] | 0.0001 to 1 µM
Cc1nc(C2CCN(c3ncnc4[nH]c(-c5ccc(C#N)cc5)cc34)CC2)[nH]c1-c1ccc(OC(F)(F)F)cc1 [P-3086, 4-[4-[4-[4-methyl-5-[4-(trifluoromethoxy)phenyl]-1H-imidazol-2-yl]-1-piperidyl]-7H-pyrrolo[2,3-d]pyrimidin-6-yl]benzonitrile] | 1 to 10 µM
